Test results from article PMC12055641, “The Study of Antistaphylococcal Potential of Omiganan and Retro-Omiganan Under Flow Conditions” (Probiotics and Antimicrobial Proteins, 2024).
Values after ≈ are worked out from the molar mass of the structure shown.

Experiments:
S. aureus ATCC 25923 = test: microbe, parasite or virus in culture
From the text: (§1) Clinical S. aureus strains were collected from patients with atopic dermatitis during their visits to the Outpatient Clinic and hospitalization in the Department of Dermatology, Venereology and Allergology at Medical University of Gdańsk (following the approval from the ethics committee, Approval Number NKBBN/242–477/2014). Reference strains of S. aureus ATCC 25923, S. aureus ATCC 33591, S. aureus ATCC 9144, and S. aureus ATCC 12598 were obtained from the American Type Culture Collection. All the strains were stored at − 80 °C in Roti®-Store cryo vials (Carl Roth GmbH, Karlsruhe, Germany) and before the tests were transferred into fresh Mueller–Hinton Medium (BioMaxima, Lublin, Poland) and incubated for 24 h at 37 °C. Subsequently, each bacterial inoculum was seeded on Mueller–Hinton agar plates (BioMaxima) and incubated again for 24 h. The cultures prepared in this way were used in further antimicrobial assays. Minimum inhibitory concentrations (MICs) were determined according to the Clinical and Laboratory Standards Institute recommendations. […] The experiments were conducted on 96-well microtiter plates, with a final volume of 100 μL. Additionally, in the case of daptomycin, the medium was supplemented with Ca^2+ (50 mg/L). Cell densities were adjusted spectrophotometrically (Multiskan™ GO Microplate Spectrophotometer, Thermo Scientific) at 600 nm. The MICs were taken as the lowest drug concentration at which a visible growth of the microorganisms was inhibited. Minimum biofilm eliminating concentrations (MBECs) were determined on 96-well flat-bottomed microtiter polystyrene plates with resazurin (7-hydroxy-3H-phenoxazin-3-one 10-oxide sodium salt) as a cell viability reagent. To do this, the plates were filled with 100 μL of the initial inoculums of bacteria (0.5 × 10^7 CFU/mL) in the Mueller–Hinton broth and incubated for 24 h at 37 °C. […] After 24 h of incubation, 20 μL of resazurin (4 mg/mL) was added to each well and the MBEC values were read. Minimum biofilm inhibitory concentrations (MBICs) were also determined on 96-well flat-bottomed microtiter polystyrene plates as described previously. To do this, 50 μL of the compounds in the concentration range, diluted MHB, were prepared. Subsequently, the 50 μL of the staphylococcal inoculums were added to reach the same density of bacteria as that in the MBEC assay. After 24 h of incubation at 37 °C, the wells were rinsed three times with PBS and the fresh medium (100 μL) with resazurin (0.6 mg/mL) was added. Then, after 1 h of incubation, MBICs were read. […] All experiments were conducted in triplicate.
(§2) Formation of the biofilm inside the PDMS flow chambers was performed using three peristaltic pumps working simultaneously (LP-pump, Kamush, Lipopharm, Poland) and sterile Tygon® 3350 silicone hoses (2.4 × 0.8 × 0.8 mm) with a length of 30 and 50 cm for inlet and outlet, respectively. Bacterial suspensions were prepared (0.5 × 10^7 CFU/mL) in sterile 50-mL test tubes, which were placed in a heating block at 37 °C. Before experiments, all channels were assessed for tightness and sterilized using a 70% 2-propanol solution (10 min, flow rate 1 mL/min) and rinsed with sterile PBS solution (10 min, flow 0.1 mL/min). The formation of biofilm inside the channels was divided into three stages: (1) adhesion—at this stage S. aureus suspensions were passed through the channels for 4 h at a flow rate of 0.1 mL/min; (2) rinsing—the previously used hoses were replaced with new sterile ones, and the channels were rinsed with sterile PBS solution for 10 min at a flow rate of 0.1 mL/min; (3) biofilm growth—after flushing the channels, the silicone hoses were placed in tubes with MHB medium, which was passed through the channels for 24 h at a flow rate of 0.1 mL/min. All experiments included growth and sterility controls.
(§3) This assay was conducted also on the S. aureus ATCC 25923 and S. aureus 33,591 (MRSA) strains.

[1] = system: S. aureus ATCC 33591 (MRSA); test: microbe, parasite or virus in culture
From the text: as §1, §2, §3

[2] = system: S. aureus clinical strain 004N (MRSA); set-up: method as in earlier work; settings: clinical isolate 004N (MRSA), nasal swab; cited from earlier work
[3] = system: S. aureus clinical strain 005S; set-up: method as in earlier work; settings: clinical isolate 005S, skin; cited from earlier work
[4] = system: S. aureus clinical strain 015N (MRSA); set-up: method as in earlier work; settings: clinical isolate 015N (MRSA), nasal swab; cited from earlier work
[5] = system: S. aureus clinical strain 030N; set-up: method as in earlier work; settings: clinical isolate 030N, nasal swab; cited from earlier work
[6] = system: S. aureus clinical strain 031S; set-up: method as in earlier work; settings: clinical isolate 031S, skin; cited from earlier work
[7] = system: S. aureus clinical strain 043SC (MRSA); set-up: method as in earlier work; settings: clinical isolate 043SC (MRSA), skin of patient with furuncle folliculitis; cited from earlier work
[8] = system: S. aureus clinical strain 051N (MRSA); set-up: method as in earlier work; settings: clinical isolate 051N (MRSA), nasal swab; cited from earlier work
[9] = system: S. aureus clinical strain 060S; set-up: method as in earlier work; settings: clinical isolate 060S, skin; cited from earlier work
[10] = system: S. aureus clinical strain 009S; set-up: method as in earlier work; settings: clinical isolate 009S, skin; cited from earlier work
[11] = S. aureus 25923 biofilm treated under flow with Retro-Omiganan (half MBEC) for 24 h
[12] = S. aureus 25923 biofilm treated under flow with Retro-Omiganan (half MBEC) for 48 h
[13] = S. aureus 25923 biofilm treated under flow with Retro-Omiganan (half MBEC) for 72 h
[14] = Staphylococcus aureus, ATCC25923, 0 h
[15] = Staphylococcus aureus, ATCC25923, 24 h
[16] = Staphylococcus aureus, ATCC25923, 48 h
[17] = Staphylococcus aureus, ATCC25923, 72 h
[18] = S. aureus ATCC 33591 (MRSA) biofilm treated under flow with Retro-Omiganan (half MBEC) for 24 h
[19] = S. aureus ATCC 33591 (MRSA) biofilm treated under flow with Retro-Omiganan (half MBEC) for 48 h
[20] = S. aureus ATCC 33591 (MRSA) biofilm treated under flow with Retro-Omiganan (half MBEC) for 72 h

Compound	MIC (S. aureus ATCC 25923; [11])	MIC (S. aureus ATCC 25923; [12])	MIC (S. aureus ATCC 25923; [13])	MIC (S. aureus ATCC 25923; [14])	MIC (S. aureus ATCC 25923; [15])	MIC (S. aureus ATCC 25923; [16])	MIC (S. aureus ATCC 25923; [17])	MIC [1, 18]	MIC [1, 19]	MIC [1, 20]	MIC ([1]; Staphylococcus aureus, 0 h)	MIC ([1]; Staphylococcus aureus, 24 h)	Antimicrobial susceptibility (MIC) [2]	Antimicrobial susceptibility (MIC) [3]	Antimicrobial susceptibility (MIC) [4]	Antimicrobial susceptibility (MIC) [5]	Antimicrobial susceptibility (MIC) [6]	Antimicrobial susceptibility (MIC) [7]	Antimicrobial susceptibility (MIC) [8]	Antimicrobial susceptibility (MIC) [9]	also measured
CC1(C)S[C@@H]2[C@H](NC(=O)[C@H](N)c3ccccc3)C(=O)N2[C@H]1C(=O)O [Ampicillin]	0.5 µg/mL (≈ 1.43 µM)	0.5 µg/mL (≈ 1.43 µM)	0.5 µg/mL (≈ 1.43 µM)	0.5 µg/mL (≈ 1.43 µM)	0.5 µg/mL (≈ 1.43 µM)	0.5 µg/mL (≈ 1.43 µM)	0.5 µg/mL (≈ 1.43 µM)	> 128 µg/mL	> 128 µg/mL	> 128 µg/mL	> 128 µg/mL	> 128 µg/mL	0.5 µg/mL	8 µg/mL	16 µg/mL	0.5 µg/mL	0.5 µg/mL	32 µg/mL	0.25 µg/mL	0.25 µg/mL	MIC ([1]; Staphylococcus aureus, 48 h): > 128 µg/mL; MIC ([1]; Staphylococcus aureus, 72 h): > 128 µg/mL
CC(=O)O[C@H]1C[C@@]2(C)[C@@H](C[C@@H](O)[C@H]3[C@@]4(C)CC[C@@H](O)[C@@H](C)[C@@H]4CC[C@@]32C)/C1=C(\CCC=C(C)C)C(=O)O [Fusidic Acid]	≤ 0.25 µg/mL	≤ 0.25 µg/mL	≤ 0.25 µg/mL	≤ 0.25 µg/mL	≤ 0.25 µg/mL	≤ 0.25 µg/mL	≤ 0.25 µg/mL	≤ 0.25 µg/mL	≤ 0.25 µg/mL	≤ 0.25 µg/mL	≤ 0.25 µg/mL	≤ 0.25 µg/mL	0.0625 µg/mL	0.0625 µg/mL	0.125 µg/mL	0.25 µg/mL	0.25 µg/mL	0.125 µg/mL	0.125 µg/mL	0.125 µg/mL	MIC ([1]; Staphylococcus aureus, 48 h): ≤ 0.25 µg/mL; MIC ([1]; Staphylococcus aureus, 72 h): ≤ 0.25 µg/mL; Antimicrobial susceptibility (MIC) [10]: 2 µg/mL
CC[C@H]1OC(=O)[C@H](C)[C@@H](O[C@H]2C[C@@](C)(OC)[C@@H](O)[C@H](C)O2)[C@H](C)[C@@H](O[C@@H]2O[C@H](C)C[C@H](N(C)C)[C@H]2O)[C@](C)(O)C[C@@H](C)C(=O)[C@H](C)[C@@H](O)[C@]1(C)O [Erythromycin]	≤ 0.25 µg/mL	≤ 0.25 µg/mL	≤ 0.25 µg/mL	≤ 0.25 µg/mL	≤ 0.25 µg/mL	≤ 0.25 µg/mL	≤ 0.25 µg/mL								32 µg/mL	0.25 µg/mL		> 512 µg/mL			
CCC[C@@H]1C[C@@H](C(=O)N[C@@H]([C@H]2O[C@H](SC)[C@H](O)[C@@H](O)[C@H]2O)[C@@H](C)O)N(C)C1 [Lincomycin]	1.0 µg/mL (≈ 2.46 µM)	1.0 µg/mL (≈ 2.46 µM)	1.0 µg/mL (≈ 2.46 µM)	1 µg/mL (≈ 2.46 µM)	1 µg/mL (≈ 2.46 µM)	1 µg/mL (≈ 2.46 µM)	1 µg/mL (≈ 2.46 µM)	> 128 µg/mL	> 128 µg/mL	> 128 µg/mL	> 128 µg/mL	> 128 µg/mL	1 µg/mL	1 µg/mL	1 µg/mL	0.5 µg/mL	0.5 µg/mL	> 512 µg/mL	1 µg/mL	0.5 µg/mL	MIC ([1]; Staphylococcus aureus, 48 h): > 128 µg/mL; MIC ([1]; Staphylococcus aureus, 72 h): > 128 µg/mL; Antimicrobial susceptibility (MIC) [10]: 0.25 µg/mL
CN(C)[C@@H]1C(O)=C(C(N)=O)C(=O)[C@@]2(O)C(O)=C3C(=O)c4c(O)cccc4[C@@](C)(O)[C@H]3C[C@@H]12 [Tetracycline]													0.5 µg/mL	0.5 µg/mL	0.5 µg/mL	0.5 µg/mL	0.25 µg/mL	32 µg/mL	0.25 µg/mL	0.125 µg/mL	MIC (S. aureus ATCC 25923; Staphylococcus aureus, ATCC25923, 0 h, S. aureus 25923, time 0 h (baseline, before peptide exposure)): ≤ 0.25 µg/mL; MIC (S. aureus ATCC 25923; Staphylococcus aureus, ATCC25923, 24 h, S. aureus 25923 biofilm treated under flow with Omiganan (half MBEC) for 24 h): ≤ 0.25 µg/mL; MIC (S. aureus ATCC 25923; Staphylococcus aureus, ATCC25923, 24 h, S. aureus 25923 biofilm treated under flow with Retro-Omiganan (half MBEC) for 24 h): ≤ 0.25 µg/mL; MIC (S. aureus ATCC 25923; Staphylococcus aureus, ATCC25923, 48 h, S. aureus 25923 biofilm treated under flow with Omiganan (half MBEC) for 48 h): ≤ 0.25 µg/mL; MIC (S. aureus ATCC 25923; Staphylococcus aureus, ATCC25923, 48 h, S. aureus 25923 biofilm treated under flow with Retro-Omiganan (half MBEC) for 48 h): ≤ 0.25 µg/mL; MIC (S. aureus ATCC 25923; Staphylococcus aureus, ATCC25923, 72 h, S. aureus 25923 biofilm treated under flow with Omiganan (half MBEC) for 72 h): ≤ 0.25 µg/mL; MIC (S. aureus ATCC 25923; Staphylococcus aureus, ATCC25923, 72 h, S. aureus 25923 biofilm treated under flow with Retro-Omiganan (half MBEC) for 72 h): ≤ 0.25 µg/mL; MIC ([1]; Staphylococcus aureus, ATCC33591|MRSA, 0 h, S. aureus ATCC 33591 (MRSA), time 0 h (baseline, before peptide exposure)): 64 µg/mL (≈ 144 µM); MIC ([1]; Staphylococcus aureus, ATCC33591|MRSA, 24 h, S. aureus ATCC 33591 (MRSA) biofilm treated under flow with Omiganan (half MBEC) for 24 h): 64 µg/mL (≈ 144 µM); MIC ([1]; Staphylococcus aureus, ATCC33591|MRSA, 24 h, S. aureus ATCC 33591 (MRSA) biofilm treated under flow with Retro-Omiganan (half MBEC) for 24 h): 64 µg/mL (≈ 144 µM); MIC ([1]; Staphylococcus aureus, ATCC33591|MRSA, 48 h, S. aureus ATCC 33591 (MRSA) biofilm treated under flow with Omiganan (half MBEC) for 48 h): 64 µg/mL (≈ 144 µM); MIC ([1]; Staphylococcus aureus, ATCC33591|MRSA, 48 h, S. aureus ATCC 33591 (MRSA) biofilm treated under flow with Retro-Omiganan (half MBEC) for 48 h): 64 µg/mL (≈ 144 µM); MIC ([1]; Staphylococcus aureus, ATCC33591|MRSA, 72 h, S. aureus ATCC 33591 (MRSA) biofilm treated under flow with Omiganan (half MBEC) for 72 h): 64 µg/mL (≈ 144 µM); MIC ([1]; Staphylococcus aureus, ATCC33591|MRSA, 72 h, S. aureus ATCC 33591 (MRSA) biofilm treated under flow with Retro-Omiganan (half MBEC) for 72 h): 64 µg/mL (≈ 144 µM); Antimicrobial susceptibility (MIC) [10]: 1 µg/mL
